Measured values as given in patent publication US11352396B2, “Antimicrobial peptides and methods of using same” (Zoetis Services LLC, priority 2017, dated 2022).
Converted amounts (≈) assume the structure as drawn. Residues, ends and D or L forms follow the SMILES beside them.

Legend:
[1] = tested on: S. aureus ATCC 29213; assay type: cell-based; set-up: key to SA 29213: MIC in μM (lowest conc. with no visible growth)
Procedure: (§1) Peptides according to SEQ ID NOs as listed in Table 1 were prepared by a commercial manufacturer (CS Bio, Menlo Park, Calif.) using solid phase synthesis. Antimicrobial activity was assessed by determining the Minimal Inhibitory Concentration (MIC) against S. aureus and E. coli. Briefly, Microbroth MICs were performed using CLSI methodology (VET01-S2). For S. aureus and E. coli ATCC strains, TSA with 5% lysed horse blood agar was used for overnight culturing at 37° C. ambient air. A 0.5 mM stock for each peptide was made with cell culture water, 0.01% acetic acid and serially diluted and spotted (10 μL) in a 96-well plate for in assay dose titration concentration of 50 μM to 0.05 μM. 0.5 McFarland Standard of each strain was diluted 1:250 in Mueller-Hinton Broth (MHB). 90 μL of culture suspension was then added upon drug in the 96-well plate for overnight incubation for 18-20 hours. The MIC was determined visually at the first well of no visible growth at the corresponding concentration.

[2] = tested on: E. coli ATCC 25922; assay type: cell-based
Procedure: as §1

[3] = tested on: MSSP (Methicillin-Susceptible Staphylococcus pseudintermedius); experiment: MIC against selected strains of MSSP; assay type: cell-based; set-up: key to MIC MSSP 84658 / MIC MSSP 86000 / MIC MSSP 71990 / MIC MSSP 72036 / MIC MSSP 78032: MIC in μM; key to MIC MSSP 86001 / MIC MSSP 72191 / MIC MSSP 76986 / MIC MSSP 77378: MIC in μM (first well with no visible growth); MIC MSSP 49051 / MIC MSSP 81923 / MIC MSSP 84250 / Effect on MSSP 86000 / Effect on MSSP 72036 / Effect on MSSP 78032: unit not given beside the values; Effect on MSSP 71990 / Effect on MSSP 86001 / Effect on MSSP 72191 / Effect on MSSP 76986 / Effect on MSSP 77378 / Effect on MSSP 81923 / Effect on MSSP 84250 / Effect on MSSP 84658: unit: µM; conditions: for MIC MSSP 49051: strain 49051, Table 3; for MIC MSSP 71990: strain 71990, Table 3; for MIC MSSP 72036: strain 72036, Table 3; for MIC MSSP 72191: strain 72191, Table 3; for MIC MSSP 76986: strain 76986, Table 3; for MIC MSSP 77378: strain 77378, Table 3; for MIC MSSP 78032: strain 78032, Table 3; for MIC MSSP 81923: strain 81923, Table 3; for MIC MSSP 84250: strain 84250, Table 3; for MIC MSSP 84658: strain 84658, Table 3; for MIC MSSP 86000: strain 86000, Table 3; for MIC MSSP 86001: strain 86001, Table 3
Procedure: as §1
(§2) Antimicrobial activity of the peptides listed in Table 2 against different strains of MSSP (Methicillin-Susceptible Staphylococcus pseudintermedius) and MRSP (Methicillin-Resistant Staphylococcus pseudintermedius) was further assessed. The results are in Tables 3 and 4, respectively.

[4] = tested on: MRSP (Methicillin-Resistant Staphylococcus pseudintermedius); experiment: MIC against selected strains of MRSP; assay type: cell-based; set-up: key to MIC MRSP 88493 / MIC MRSP 72035 / MIC MRSP 81926: MIC in μM; key to MIC MRSP 71994 / MIC MRSP 79882 / MIC MRSP 80729 / MIC MRSP 86002: MIC in μM (first well with no visible growth); key to MIC MRSP 72192 / MIC MRSP 76923 / MR 71994 / Mr 88493 / MR 72035 / MR 72192 / MR 76923 / MR 79882 / MR 80279 / MR 81926 / MR 86002 / MR 87665: MIC in μM (visual, first well with no growth); MIC MRSP 87655: unit not given beside the values; conditions: for MIC MRSP 71994: strain 71994, Table 4; for MIC MRSP 72035: strain 72035, Table 4; for MIC MRSP 72192: strain 72192, Table 4; for MIC MRSP 76923: strain 76923, Table 4; for MIC MRSP 79882: strain 79882, Table 4; for MIC MRSP 80729: strain 80729, Table 4; for MIC MRSP 81926: strain 81926, Table 4; for MIC MRSP 86002: strain 86002, Table 4; for MIC MRSP 87655: strain 87655, Table 4; for MIC MRSP 88493: strain 88493, Table 4
Procedure: as §1, §2

[5] = tested on: Canine-derived epithelial keratinocyte (CPEK) cells; assay type: cell-based
Procedure: Safety of the peptides listed in table 2 was determining by measuring cell viability. Canine-derived epithelial keratinocyte (CPEK) cells were propagated to determine cell viability in the presence of peptides. Cells were grown from a frozen stock in CnT-09-5 (with supplements) pre-warmed media in a T75 flask and incubated overnight at 37° C., 5% CO2. Cells were washed with phosphate buffer and replenished with pre-warmed CnT-05-9 media and repeated for several days until cells reached a density of 6.6×10^4 cells/mL. Cells were then transferred to a 384 well plate, allowed to settle and dosed with peptides and melittin control peptide (50 μM to 0.05 μM) and incubated overnight at 37° C., 5% CO2. 0.1% TritonX100 as (HPE) and phosphate buffer alone as (ZPE) were added to the plates to calculate percent effect once the assay was terminated with 10 μL CELLTITER-GLO® assay reagents for a luminescent readout.

[6] = tested on: cRBC; assay type: cell-based, canine
Procedure: SEQ ID NO: 1 was selected for further research. Toxicity of SEQ ID NO: 1 to eukaryotic blood cells was compared to that of tachyplesin (SEQ ID NO: 13). A standard, well referenced red blood cell hemolysis assay was employed against multiple species to test the lysis potential of the peptides. Red blood cells (RBCs) were prepared and isolated by several centrifuge and wash steps to remove the plasma fraction. A dose titration (50 μM to 0.05 μM) of test peptides and control peptide melittin were spotted from 50 mM stocks in a 384 well plate. Prepared RBCs were incubated with peptide for one hour at 37° C. Percent hemolysis was measured by optical density at 405 nm and utilizing 1% TritonX100 as hundred percent effect (HPE) and phosphate buffer alone as zero percent effect (ZPE).

109 (KWCFRVCYRRICYRRCRD; Artificial Antimicrobial peptide) [compound 109]
SA 29213 ([1]; S. aureus 29213, Table 6): 3.1
EC 25922 ([2]; E. coli 25922, Table 6): 1.6 µM
SP 49051 ([3]; S. pseudintermedius 49051, Table 6): 1.6
Effect on MSSP 71990 ([3]; strain 71990, Table 5): 1.6
Effect on MSSP 72036 ([3]; strain 72036, Table 5): 1.6
Effect on MSSP 72191 ([3]; strain 72191, Table 5): 1.6
Effect on MSSP 76986 ([3]; strain 76986, Table 5): 1.6
Effect on MSSP 77378 ([3]; strain 77378, Table 5): 1.6
Effect on MSSP 78032 ([3]; strain 78032, Table 5): 1.6
Effect on MSSP 81923 ([3]; strain 81923, Table 5): 1.6
Effect on MSSP 84250 ([3]; strain 84250, Table 5): 1.6
Effect on MSSP 84658 ([3]; strain 84658, Table 5): 1.6
Effect on MSSP 86000 ([3]; strain 86000, Table 5): 1.6
Effect on MSSP 86001 ([3]; strain 86001, Table 5): 1.6
MR 71994 ([4]; MRSP strain 71994, Table 6): 1.6
MR 72035 ([4]; MRSP strain 72035, Table 6): 1.6
MR 72192 ([4]; MRSP strain 72192, Table 6): 1.6
MR 76923 ([4]; MRSP strain 76923, Table 6): 1.6
MR 79882 ([4]; MRSP strain 79882, Table 6): 0.8
MR 80279 ([4]; MRSP strain 80279, Table 6): 1.6
MR 81926 ([4]; MRSP strain 81926, Table 6): 1.6
MR 86002 ([4]; MRSP strain 86002, Table 6): 1.6
MR 87665 ([4]; MRSP strain 87665, Table 6): 1.6
Mr 88493 ([4]; MRSP strain 88493, Table 6): 1.6
CPEK (50 μM) [5]: 19.2
cRBC (50 μM) [6]: 99.8

CC(C)C[C@H](NC(=O)[C@H](CCCNC(=N)N)NC(=O)CNC(=O)CNC(=O)[C@@H](N)CCCNC(=N)N)C(=O)N[C@@H](CS)C(=O)N[C@@H](Cc1ccc(O)cc1)C(=O)N[C@@H](CS)C(=O)N[C@@H](CCCNC(=N)N)C(=O)N[C@@H](CCCNC(=N)N)C(=O)N[C@@H](CCCNC(=N)N)C(=O)N[C@@H](Cc1ccccc1)C(=O)N[C@@H](CS)C(=O)N[C@H](C(=O)N[C@@H](CS)C(=O)N[C@H](C(=O)NCC(=O)N[C@@H](CCCNC(=N)N)C(=O)O)C(C)C)C(C)C [SEQ ID NO: 92, RGGRLCYCRRRFCVCVGR] (H-RGGRLCYCRRRFCVCVGR-OH; N-terminus and C-terminus assumed)
MIC S. aureus ATCC 29213 [1]: 3.1 µM (≈ 6.7 µg/mL)
MIC E. coli ATCC 25922 [2]: 3.1 µM (≈ 6.7 µg/mL)

CC(C)[C@H](NC(=O)[C@H](CS)NC(=O)[C@H](Cc1ccccc1)NC(=O)CNC(=O)[C@H](CC(N)=O)NC(=O)[C@H](CCCCN)NC(=O)[C@H](CS)NC(=O)[C@H](CCCCN)NC(=O)[C@H](CS)NC(=O)CNC(=O)[C@H](CCCCN)NC(=O)[C@@H](N)CCCNC(=N)N)C(=O)N[C@@H](CS)C(=O)N[C@@H](CCCNC(=N)N)C(N)=O [SEQ ID NO: 65, RKGCKCKNGFCVCR-NH2] (H-RKGCKCKNGFCVCR-NH2; N-terminus assumed)
MIC S. aureus ATCC 29213 [1]: 50 µM (≈ 80.1 µg/mL)
MIC E. coli ATCC 25922 [2]: 6.25 µM (≈ 10 µg/mL)

11 (KWCFRVCYRGICYRRCND; Artificial Antimicrobial peptide) [compound 11]
MIC MSSP 49051 [3]: 0.8
MIC MSSP 71990 [3]: 1.6
MIC MSSP 72036 [3]: 0.8
MIC MSSP 72191 [3]: 0.8
MIC MSSP 76986 [3]: 0.8
MIC MSSP 77378 [3]: 0.4
MIC MSSP 78032 [3]: 0.8
MIC MSSP 81923 [3]: 1.6
MIC MSSP 84250 [3]: 0.8
MIC MSSP 84658 [3]: 0.8
MIC MSSP 86000 [3]: 0.4
MIC MSSP 86001 [3]: 0.8
MIC MRSP 71994 [4]: 1.6
MIC MRSP 72035 [4]: 1.6
MIC MRSP 72192 [4]: 0.8
MIC MRSP 76923 [4]: 0.8
MIC MRSP 79882 [4]: 0.8
MIC MRSP 80729 [4]: 0.8
MIC MRSP 81926 [4]: 0.8
MIC MRSP 86002 [4]: 0.8
MIC MRSP 87655 [4]: 0.8
MIC MRSP 88493 [4]: 1.6
CPEK (50 μM) [5]: 22.0
cRBC (50 μM) [6]: 57.8

9 (KWCFRVCYRGFCYRRCRD; Artificial Antimicrobial peptide) [compound 9]
MIC MSSP 49051 [3]: 1.6
MIC MSSP 71990 [3]: 1.6
MIC MSSP 72036 [3]: 0.8
MIC MSSP 72191 [3]: 1.6
MIC MSSP 76986 [3]: 0.8
MIC MSSP 77378 [3]: 0.4
MIC MSSP 78032 [3]: 0.8
MIC MSSP 81923 [3]: 1.6
MIC MSSP 84250 [3]: 1.6
MIC MSSP 84658 [3]: 1.6
MIC MSSP 86000 [3]: 0.8
MIC MSSP 86001 [3]: 0.8
MIC MRSP 71994 [4]: 1.6
MIC MRSP 72035 [4]: 1.6
MIC MRSP 72192 [4]: 1.6
MIC MRSP 76923 [4]: 1.6
MIC MRSP 79882 [4]: 0.8
MIC MRSP 80729 [4]: 1.6
MIC MRSP 81926 [4]: 1.6
MIC MRSP 86002 [4]: 1.6
MIC MRSP 87655 [4]: 1.6
MIC MRSP 88493 [4]: 1.6
CPEK (50 μM) [5]: 52.3
cRBC (50 μM) [6]: 101.3
